The subject of test [1] is Streptococcus sp. 'group A'. Description: Streptococcus pyogenes SK(-)GAS viability under kanamycin – luminescence, BacTiterGlo, confirmation, counter-screen for streptokinase expression inhibitor project, dose response (AID 1900). It is filed as functional, organism-based.
Test [2] deals with T1, Streptokinase A (Streptococcus pyogenes serotype M1, UniProt P10520).
T1 sequence (P10520 whole entry): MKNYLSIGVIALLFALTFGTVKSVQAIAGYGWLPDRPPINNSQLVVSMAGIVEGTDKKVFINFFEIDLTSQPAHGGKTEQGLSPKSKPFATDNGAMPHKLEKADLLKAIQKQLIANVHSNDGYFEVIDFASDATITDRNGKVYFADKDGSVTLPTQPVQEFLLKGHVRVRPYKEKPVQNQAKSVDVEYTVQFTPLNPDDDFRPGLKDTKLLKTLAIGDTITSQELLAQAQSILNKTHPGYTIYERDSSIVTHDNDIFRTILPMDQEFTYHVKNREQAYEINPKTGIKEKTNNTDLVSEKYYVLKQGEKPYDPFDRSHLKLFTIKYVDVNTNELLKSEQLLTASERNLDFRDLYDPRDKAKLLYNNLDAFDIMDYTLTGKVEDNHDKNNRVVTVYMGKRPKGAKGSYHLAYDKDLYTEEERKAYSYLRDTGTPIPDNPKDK
Description: viability-normalized secreted streptokinase activity reduction – plasminogen activation absorbance, OD405, dose response (AID 1914).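 Note: secreted streptokinase activity via plasminogen activation per viability signal from cell pellet.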 It is filed as functional, Streptococcus pyogenes M1 GAS.

The test system of test [3] is Streptococcus. In words: GAS UMAA2166 growth inhibition – luminescence, BacTiterGlo, counter-screen for streptokinase expression inhibitor project, dose response (AID 1915).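 Note: potency for reduction of bacterial viability or growth.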 In kind it is functional, organism-based.
Test [4] concerns the target Voltage-dependent T-type calcium channel subunit alpha-1H (Homo sapiens, UniProt O95180). In kind it is functional.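 Note: channel activity triggered by adding a high calcium stimulation buffer.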
The nature of test [5]: blockers of HIV-1 envelope-mediated cell-cell fusion – cherry-pick, dose response (AID 652057). In kind it is functional, cell-based.
Test [6] in a line: blockers of HIV-1 ZM109 envelope-driven cell-cell fusion – HeLa effector, CEM target cells, luciferase, cherry-pick, dose response (AID 652058).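 Note: luciferase signal from HIV-1 Env mediated cell-cell fusion of effector and target cells.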 It is filed as functional, cell-based.
Test [7] can be described thus: off-target signal loss in HeLa-CEM21 co-culture – HeLa F-luc CTL cells, cherry-picked, counter-screen for HIV-1 Env fusion inhibitor project, dose response (AID 652040).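 Note: potency for signal decrease marking cytotoxic or nonspecific inhibition.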 It is filed as functional, cell-based.
A short description of test [8]: HIV-1 AD8 envelope cell-cell fusion blockers – cherry-pick, dose response (AID 652062).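 Note: luciferase signal from cell-cell fusion driven by HIV-1 clade B AD8 Env; potency is for inhibitors of fusion seen as a drop in luminescence.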 It is filed as functional, cell-based.
In test [9] the target is DNA dC->dU-editing enzyme APOBEC-3A (Homo sapiens, UniProt P31941). Description: Dose Response confirmation of small molecule APOBEC3A DNA Deaminase Inhibitors via a fluorescence-based single-stranded DNA deaminase assay. [Related pubchem assays (depositor defined):AID493011, AID493024]. It is filed as functional.
Test [10] addresses DNA dC->dU-editing enzyme APOBEC-3G (Homo sapiens, UniProt Q9HC16). It is filed as functional.
A short description of test [11]: Trypanosoma cruzi growth suppression in host cells – NIH3T3 host cells, beta-gal luminescence, confirmation (AID 2044).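 Note: intracellular parasites grown in NIH/3T3 mouse fibroblasts as host cells; luminescent beta-galactosidase reporter signal from transgenic T. cruzi replicating inside host cells; inhibitors lower the luminescence signal.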 In kind it is functional, cell-based.
Test [12] in a line: NIH3T3 cell viability loss – ATP luminescence, mouse fibroblasts, counter-screen, dose response (AID 2010).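 Note: cells exposed to compound for about 90 hours before reading.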 It is filed as functional, cell-based.
In test [13] the target is T2, Heat shock factor protein 1 (Mus musculus, UniProt P38532).
T2 sequence (P38532 whole entry): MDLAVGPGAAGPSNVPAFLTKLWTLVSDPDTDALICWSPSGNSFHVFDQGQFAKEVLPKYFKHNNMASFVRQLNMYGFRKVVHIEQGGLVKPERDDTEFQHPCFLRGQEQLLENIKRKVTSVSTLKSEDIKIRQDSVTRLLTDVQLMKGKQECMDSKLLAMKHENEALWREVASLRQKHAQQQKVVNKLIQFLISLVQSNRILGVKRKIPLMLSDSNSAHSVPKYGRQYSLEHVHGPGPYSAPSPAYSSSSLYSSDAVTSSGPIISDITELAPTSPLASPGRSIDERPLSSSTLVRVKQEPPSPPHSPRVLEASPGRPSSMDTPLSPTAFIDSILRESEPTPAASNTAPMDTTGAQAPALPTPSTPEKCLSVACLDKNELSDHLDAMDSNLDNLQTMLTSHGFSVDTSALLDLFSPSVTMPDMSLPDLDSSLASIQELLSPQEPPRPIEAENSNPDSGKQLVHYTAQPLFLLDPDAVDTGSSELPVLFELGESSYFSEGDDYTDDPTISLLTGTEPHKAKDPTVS
In words: enhancement of HSF1-driven luciferase signal – cell-based, NIH3T3, luminescence, dose retest, confirmation (AID 435004).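 Note: stress induced by proteasome inhibitor MG132 added 30 min after compound; luciferase reporter driven by HSF1 response element in NIH3T3 cells; actives raise luminescence as potentiators of the MG132 stress response.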 In kind it is functional.

In test [14] the test system is INS1. Description: INS-1E survival protection against cytokine death – cell-based, luminescence, retest, dose response (AID 449756).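 Note: cell death triggered by IL-1 beta plus TNF-alpha plus IFN-gamma mixture; protective hits raise ATP signal compared with cytokine alone wells.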 As to conditions: Rattus norvegicus. It is filed as functional.
Test [15] concerns the target T3, Long-chain-fatty-acid--AMP ligase FadD28 (Mycobacterium tuberculosis, UniProt P9WQ59).
T3 sequence (P9WQ59 whole entry): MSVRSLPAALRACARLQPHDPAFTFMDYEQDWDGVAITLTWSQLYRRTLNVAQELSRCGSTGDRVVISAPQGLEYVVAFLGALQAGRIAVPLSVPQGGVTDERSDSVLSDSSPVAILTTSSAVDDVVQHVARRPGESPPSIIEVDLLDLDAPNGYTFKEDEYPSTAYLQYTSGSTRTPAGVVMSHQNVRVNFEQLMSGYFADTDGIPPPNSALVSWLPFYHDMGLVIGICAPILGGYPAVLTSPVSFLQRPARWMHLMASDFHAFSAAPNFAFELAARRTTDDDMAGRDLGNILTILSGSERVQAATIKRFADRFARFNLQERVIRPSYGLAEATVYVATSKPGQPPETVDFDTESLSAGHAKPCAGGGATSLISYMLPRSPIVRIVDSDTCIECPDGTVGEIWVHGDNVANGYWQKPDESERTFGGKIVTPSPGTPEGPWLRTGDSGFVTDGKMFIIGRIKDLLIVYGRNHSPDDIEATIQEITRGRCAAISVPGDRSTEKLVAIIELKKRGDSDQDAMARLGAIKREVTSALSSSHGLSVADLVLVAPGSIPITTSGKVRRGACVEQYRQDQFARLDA
Description: Fluorescence polarization aasay to screen for inhibitors that compete for the binding of FadD28 to a bisubstrate Measured in Biochemical System Using Plate Reader - 2147-01_Inhibitor_Dose_CherryPick_Activity. It is filed as functional, Mycobacterium tuberculosis H37Rv.

A short description of test [16]: cells. In kind it is functional.
Test [17] deals with T4, Calpain-2 catalytic subunit (Sus scrofa, UniProt P43367).
T4 sequence (P43367 whole entry): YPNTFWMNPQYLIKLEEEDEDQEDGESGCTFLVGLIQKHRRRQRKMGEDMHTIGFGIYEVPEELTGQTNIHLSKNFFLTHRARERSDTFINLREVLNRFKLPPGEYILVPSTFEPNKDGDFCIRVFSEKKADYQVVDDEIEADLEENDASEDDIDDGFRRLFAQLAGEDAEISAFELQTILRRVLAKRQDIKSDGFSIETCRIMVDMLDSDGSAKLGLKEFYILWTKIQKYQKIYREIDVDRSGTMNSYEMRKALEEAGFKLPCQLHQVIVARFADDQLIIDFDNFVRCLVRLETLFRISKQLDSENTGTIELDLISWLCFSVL
In words: m-calpain protease blockers, concentration series – biochemical, fluorogenic peptide substrate, dose response (AID 1420). In kind it is functional.

For test [18], the target named is Paired box protein Pax-8 (Homo sapiens, UniProt Q06710). Description: PAX8 transcriptional activity inhibition in RMG-I – RMG-I cells, luciferase, cherry-pick, dose response (AID 687027).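 Note: luciferase reporter driven by Pax8 target thyroperoxidase promoter measured by SteadyGlo luminescence.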 It is filed as functional, cell-based.

The source made the active and inactive calls.

Sequence of DNA dC->dU-editing enzyme APOBEC-3G (Q9HC16 whole entry): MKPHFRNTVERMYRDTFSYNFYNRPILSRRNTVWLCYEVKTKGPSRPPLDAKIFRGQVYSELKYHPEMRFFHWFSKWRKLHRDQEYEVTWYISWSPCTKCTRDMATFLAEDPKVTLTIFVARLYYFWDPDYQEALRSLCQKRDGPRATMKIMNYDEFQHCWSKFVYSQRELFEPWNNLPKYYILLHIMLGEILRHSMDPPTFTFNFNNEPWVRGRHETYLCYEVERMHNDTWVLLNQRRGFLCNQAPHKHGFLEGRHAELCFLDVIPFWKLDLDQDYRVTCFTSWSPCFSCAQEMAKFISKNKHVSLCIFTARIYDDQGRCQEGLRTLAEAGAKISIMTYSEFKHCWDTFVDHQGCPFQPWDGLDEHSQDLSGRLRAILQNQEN
Sequence of Voltage-dependent T-type calcium channel subunit alpha-1H (O95180 whole entry, the tested form may be a part): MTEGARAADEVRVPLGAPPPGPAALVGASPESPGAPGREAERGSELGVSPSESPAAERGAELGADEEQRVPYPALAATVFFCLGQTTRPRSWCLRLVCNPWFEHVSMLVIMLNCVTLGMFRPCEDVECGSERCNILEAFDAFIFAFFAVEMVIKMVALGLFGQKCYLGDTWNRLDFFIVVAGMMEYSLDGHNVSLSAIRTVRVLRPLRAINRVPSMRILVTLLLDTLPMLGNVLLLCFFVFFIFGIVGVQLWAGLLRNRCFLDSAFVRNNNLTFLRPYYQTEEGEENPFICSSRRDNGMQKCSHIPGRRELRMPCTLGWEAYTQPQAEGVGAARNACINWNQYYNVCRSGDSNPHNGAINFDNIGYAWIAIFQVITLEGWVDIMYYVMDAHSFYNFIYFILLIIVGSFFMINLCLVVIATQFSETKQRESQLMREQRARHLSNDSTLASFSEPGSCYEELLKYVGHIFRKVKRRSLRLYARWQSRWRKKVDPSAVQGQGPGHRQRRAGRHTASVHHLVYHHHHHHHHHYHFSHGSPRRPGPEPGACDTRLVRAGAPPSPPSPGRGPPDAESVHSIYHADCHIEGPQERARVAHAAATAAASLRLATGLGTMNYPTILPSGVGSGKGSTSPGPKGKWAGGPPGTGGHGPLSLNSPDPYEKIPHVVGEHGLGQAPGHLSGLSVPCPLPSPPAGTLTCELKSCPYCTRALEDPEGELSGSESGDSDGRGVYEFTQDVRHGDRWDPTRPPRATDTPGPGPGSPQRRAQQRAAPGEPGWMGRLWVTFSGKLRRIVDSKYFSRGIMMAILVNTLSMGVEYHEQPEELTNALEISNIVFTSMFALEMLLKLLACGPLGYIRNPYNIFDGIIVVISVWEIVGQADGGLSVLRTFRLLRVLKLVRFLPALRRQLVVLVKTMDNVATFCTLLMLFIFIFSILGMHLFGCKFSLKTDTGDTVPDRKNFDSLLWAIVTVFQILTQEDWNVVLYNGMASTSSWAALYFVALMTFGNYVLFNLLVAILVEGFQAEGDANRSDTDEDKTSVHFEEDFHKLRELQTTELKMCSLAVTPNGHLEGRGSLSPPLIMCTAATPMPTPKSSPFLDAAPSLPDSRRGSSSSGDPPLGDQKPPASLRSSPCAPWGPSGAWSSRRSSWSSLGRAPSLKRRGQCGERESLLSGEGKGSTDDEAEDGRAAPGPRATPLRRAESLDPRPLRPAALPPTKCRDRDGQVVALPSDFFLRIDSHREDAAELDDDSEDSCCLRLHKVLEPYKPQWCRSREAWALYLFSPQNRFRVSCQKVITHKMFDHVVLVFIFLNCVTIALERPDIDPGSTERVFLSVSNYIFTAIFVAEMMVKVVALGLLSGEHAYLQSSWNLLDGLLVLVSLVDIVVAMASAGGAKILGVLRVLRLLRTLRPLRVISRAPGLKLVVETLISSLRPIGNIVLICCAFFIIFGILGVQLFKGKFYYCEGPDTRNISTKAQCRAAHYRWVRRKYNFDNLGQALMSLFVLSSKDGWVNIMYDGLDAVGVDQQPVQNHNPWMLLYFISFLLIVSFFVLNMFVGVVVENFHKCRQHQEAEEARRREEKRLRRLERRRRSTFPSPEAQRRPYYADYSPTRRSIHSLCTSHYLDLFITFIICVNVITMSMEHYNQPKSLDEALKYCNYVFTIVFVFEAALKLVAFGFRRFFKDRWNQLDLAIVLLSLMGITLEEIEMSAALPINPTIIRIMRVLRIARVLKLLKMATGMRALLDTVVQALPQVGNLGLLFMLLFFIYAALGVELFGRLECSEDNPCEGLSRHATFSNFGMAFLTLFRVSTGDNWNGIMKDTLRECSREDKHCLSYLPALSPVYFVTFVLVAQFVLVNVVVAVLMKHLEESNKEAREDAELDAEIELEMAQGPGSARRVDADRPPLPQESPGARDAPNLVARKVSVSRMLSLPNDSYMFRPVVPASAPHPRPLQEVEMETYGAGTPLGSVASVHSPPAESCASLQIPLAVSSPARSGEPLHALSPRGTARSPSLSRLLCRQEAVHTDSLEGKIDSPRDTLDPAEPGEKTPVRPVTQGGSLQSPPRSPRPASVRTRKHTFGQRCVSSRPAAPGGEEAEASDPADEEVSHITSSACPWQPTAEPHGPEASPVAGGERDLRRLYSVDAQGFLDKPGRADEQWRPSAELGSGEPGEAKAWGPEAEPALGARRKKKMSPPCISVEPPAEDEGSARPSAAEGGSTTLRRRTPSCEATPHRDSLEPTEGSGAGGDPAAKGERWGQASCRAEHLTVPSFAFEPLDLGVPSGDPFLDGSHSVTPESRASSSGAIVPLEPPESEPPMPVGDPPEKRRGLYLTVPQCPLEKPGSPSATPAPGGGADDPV
Sequence of DNA dC->dU-editing enzyme APOBEC-3A (P31941 whole entry): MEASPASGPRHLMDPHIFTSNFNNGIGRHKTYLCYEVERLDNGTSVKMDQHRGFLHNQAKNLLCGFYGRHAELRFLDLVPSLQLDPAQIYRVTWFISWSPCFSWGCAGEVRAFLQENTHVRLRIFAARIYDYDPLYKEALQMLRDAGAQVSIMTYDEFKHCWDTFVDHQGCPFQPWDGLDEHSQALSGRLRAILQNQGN
Sequence of Paired box protein Pax-8 (Q06710 whole entry): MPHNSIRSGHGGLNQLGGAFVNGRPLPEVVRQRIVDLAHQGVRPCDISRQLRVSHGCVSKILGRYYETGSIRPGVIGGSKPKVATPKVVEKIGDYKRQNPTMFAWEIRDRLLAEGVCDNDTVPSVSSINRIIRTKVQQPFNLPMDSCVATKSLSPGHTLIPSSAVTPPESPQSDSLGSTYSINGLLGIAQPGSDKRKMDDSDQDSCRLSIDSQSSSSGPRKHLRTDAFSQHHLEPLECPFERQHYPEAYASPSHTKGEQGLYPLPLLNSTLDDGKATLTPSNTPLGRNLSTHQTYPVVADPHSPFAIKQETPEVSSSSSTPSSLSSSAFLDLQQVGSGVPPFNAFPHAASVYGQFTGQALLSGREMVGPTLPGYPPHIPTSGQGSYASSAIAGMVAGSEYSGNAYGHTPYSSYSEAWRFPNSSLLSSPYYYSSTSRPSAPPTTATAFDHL

Consider `O=C(CN1CCc2ccccc2C1)Nc1ccccc1N1CCCCCC1`, for which the EC50 in test [1] is 6.54 µM (active); in [2] it was 13 µM (active); in test [3] it was 13.3 µM (active); in test [4], 8.39 µM (active).
Consider `Cc1ccc(N2C(=O)N3[C@H](c4cccc(C)c4)[C@@H]4C(=O)N(Cc5ccccc5)C(=O)[C@@H]4[C@]3(C)C2=O)cc1`, for which the AC50 is 3.36 µM (active) in test [5], 1.2 µM (active) in test [6], 3.88 µM (active) in test [7] and 2.33 µM (active) in test [8].
As for `O=C(Nc1ccc(N2CCN(C(=O)c3ccccc3)CC2)c(Cl)c1)c1cccnc1`, the EC50 in test [1] is 12.4 µM (active); in test [2], > 150 µM (not active); in test [3] it was 14.7 µM (active). The AC50 in test [7] is 20.5 µM (active); in [8] it was 12.6 µM (active).
As for `Cc1ccc2cc(C#N)c(NCCNC(=O)C3CC3)nc2c1C`, the AC50 in [5] is 4.5 µM (active); in [6] it was 4.47 µM (active); in [7], 2.96 µM (active); in test [8], 6.25 µM (active).
Regarding `O=C(CCC1N=C2c3ccccc3N=C(SCc3ccccc3Cl)N2C1=O)NCc1ccco1` (stereo not drawn), in [4], the EC50 is 14 µM (active).
With `O=C(Nc1nnc(-c2ccc3c(c2)CCCC3)o1)C1COc2ccccc2O1` (stereo not drawn), the EC50 in [4] is 1.37 µM (active).
For `O=C(CSc1nnnn1-c1ccccc1)N1CCc2ccccc21`, the figures for the IC50 in test [9] and in test [10] were 6.17 µM (active) and 4.32 µM (active), respectively.
Turning to `Cc1ccc(C)c(CS(=O)(=O)c2cn(CC(=O)N3CCC(C)CC3)c3ccccc23)c1`, the AC50 in test [5] was 2.82 µM (active); in test [6], 3.03 µM (active); in [7], 3.13 µM (active); in test [8], 2.04 µM (active).
As for `N=c1c2c(-c3ccccc3)c(-c3ccccc3)n(Cc3ccco3)c2ncn1CCCN1CCOCC1`, the EC50 in test [11] is 1.49 µM (active); in [12], > 60 µM (not active); in test [13] it was > 260 µM (inactive). Besides, the AC50 in test [14] is 14.3 µM (active); in [15], 77.3 µM (active).
`COc1cccc(OCC(O)CN2CCC(Cc3ccccc3)CC2)c1` (stereo not drawn): the EC50 in [4] is 4.62 µM (active).
Take `CC(=O)c1ccc(S(=O)(=O)N2Cc3ccccc3CC2C(=O)O)cc1` (stereo not drawn): the IC50 is 14 µM (active) in [9] and 43.7 µM (active) in test [10].
Regarding `CC(C)(C)c1ccc(OCCC(=O)Nc2cccc(S(=O)(=O)N3CCOCC3)c2)cc1`, the AC50 in [5] was 22.2 µM (active); in test [7] it was 48.2 µM (active); in [8], 53.1 µM (active).
`COc1ccc2[nH]c(O)c(N=O)c2c1`: the IC50 was 2.64 µM (active) in test [9] and 4.41 µM (active) in [10].
Taken in the same sequence, the figures for `CN1CCN(c2ccc(Cl)cc2NC(=O)CC2OC(=O)c3ccccc32)CC1` (stereo not drawn) were 3.24 µM (active) and 2.9 µM (active).
For `CC(/C=C(\O)c1ccncc1)=N\c1ccccc1O`, the EC50 in test [4] is 3.26 µM (active). The IC50 in test [16] was 3.1 µM (active).
Regarding `COc1cc(/C=N/NS(=O)(=O)c2ccc(C)cc2)ccc1OCc1ccc(C(=O)O)cc1`, the IC50 in test [17] is > 50 µM (not active). The AC50 in test [5] was 2.5 µM (active); in test [6], 16.1 µM (active); in test [18], 23.9 µM (active); in test [7], 3.18 µM (active); in [8], 8.31 µM (active).

These data come from ChEMBL document CHEMBL1201862, “PubChem BioAssay data set” (2004).
